Structures can show the parent of a compound that is named as a salt.
What was measured:
BaF3 = assay: Proliferation of BaF3 cells, CCK8 cell viability assay; assay type: cell-based; conditions: Mus musculus, 72 hours
Method in brief: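 Human kinase-region sequences were PCR-amplified, fused behind N-terminal TEL in MSCV-Puro and stably introduced into mouse BaF3 by retrovirus. IL-3 was then removed to give kinase-dependent lines. Compound effects on these and on parental BaF3 are scored as GI50 (μM) via CCK8 viable-cell quantification.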

Tel-cKit-BaF3 = assay: Proliferation of Tel-cKit-BaF3 cells, CCK8 cell viability assay; assay type: cell-based, mouse; conditions: Mus musculus; 72 hours, CCK8; stably expressing cKIT kinase
Method in brief: (§1)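 Murine BaF3 lines carry retrovirally transduced human kinase domains fused to an N-terminal TEL fragment (cKIT, PDGFRα or PDGFRβ), and IL-3 is withdrawn so their growth depends on the fused kinase; parental BaF3 serves as the reference line. Living cells were quantified by CCK8 dehydrogenase activity, giving GI50 in μM.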

Tel-cKit/T670I-BaF3 = assay: Proliferation of Tel-cKit/T670I-BaF3 cells, CCK8 cell viability assay; assay type: cell-based; conditions: Mus musculus, 72 hours, stably expressing cKIT/T670I
Method in brief: as §1

Tel-FLT3-BaF3 = assay: Proliferation of Tel-FLT3-BaF3 cells, CCK8 cell viability assay; assay type: cell-based; conditions: Mus musculus, 72 hours, stably expressing FLT3 kinase
Method in brief: (§2)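 Murine BaF3 cells made IL-3-independent by retroviral transduction of human kinase domains fused to N-terminal TEL or TPR fragments; parental BaF3 included. Living cells quantified by CCK8 (dehydrogenase activity) read-out, giving GI50 in μM.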

FLT3-ITD-BaF3 = assay: Proliferation of FLT3-ITD-BaF3 cells, CCK8 cell viability assay; assay type: cell-based; conditions: Mus musculus, 72 hours, stably expressing FLT3/ITD
Method in brief: as §2

TEL-PDGFRα-BaF3 = assay: Proliferation of TEL-PDGFRα-BaF3 cells, CCK8 cell viability assay; assay type: cell-based; conditions: Mus musculus, 72 hours, stably expressing PDGFRα kinase
Method in brief: as §1

TEL-PDGFRβ-BaF3 = assay: Proliferation of TEL-PDGFRβ-BaF3 cells, CCK8 cell viability assay; assay type: cell-based; conditions: Mus musculus, 72 hours, stably expressing PDGFRβ kinase
Method in brief: as §1

TEL-VEGFR2-BaF3 = assay: Proliferation of TEL-VEGFR2-BaF3 cells, CCK8 cell viability assay; assay type: cell-based; conditions: Mus musculus, 72 hours, stably expressing VEGFR2 kinase
Method in brief: as §2

[1] = tested on: human acute myeloid leukemia cell strain MOLM-13; assay: Proliferation of MOLM-13 cells, Cell Titer-Glo; assay type: cell-based; conditions: summary of Table 3
Procedure: (§3) In addition, in this example the inhibitory activity of preferred compounds (Compound 5 and Compound 135) was tested against the following cell strains: human acute myeloid leukemia cell strain MV4-11 (expressing FLT3/ITD mutant gene), human acute myeloid leukemia cell strain MOLM-13 (expressing FLT3/ITD mutant gene and wild-type FLT3 gene), human acute myeloid leukemia cell strain MOLM-14 (expressing FLT3/ITD mutant gene and wild-type FLT3 gene), human acute myeloid leukemia cell strain OCI-AML-3 (expressing FLT3 A680V mutant gene), human chronic lymphatic leukemia cell strain MEC-1, Chinese hamster lung (CHL) cells, Chinese hamster ovary (CHO) cells, wherein all the cells were purchased from ATCC. In the example the compounds of the present invention were added respectively into the above cells at different concentrations (0.000508 μM, 0.00152 μM, 0.00457 μM, 0.0137 μM, 0.0411 μM, 0.123 μM, 0.370 μM, 1.11 μM, 3.33 μM, 10 μM in DMSO) and the cells were incubated for 72 hours. The number of viable cells was determined by quantification of ATP in living cells using Cell Titer-Glo® (Promega, the USA) Luminescent Cell Viability Assay kit and thereby GI50 was calculated.

[2] = tested on: human acute myeloid leukemia cell strain MV4-11; assay: Proliferation of MV4-11 cells, Cell Titer-Glo; assay type: cell-based; conditions: summary of Table 3
Procedure: as §3

[3] = tested on: human acute myeloid leukemia cell strain MOLM-14; assay: Proliferation of MOLM-14 cells, Cell Titer-Glo; assay type: cell-based; conditions: summary of Table 3
Procedure: as §3

P210-BaF3 = assay: Proliferation of P210-BaF3 cells, CCK8 cell viability assay; assay type: cell-based; conditions: Mus musculus, 72 hours, stably expressing BCR-ABL mutant activated kinase
Method in brief: as §2

P210/T315I-BaF3 = assay: Proliferation of P210/T315I-BaF3 cells, CCK8 cell viability assay; assay type: cell-based; conditions: Mus musculus, 72 hours, stably expressing BCR-ABL/T315I
Method in brief: as §2

Tel-RET-BaF3 = assay: Proliferation of Tel-RET-BaF3 cells, CCK8 cell viability assay; assay type: cell-based; conditions: Mus musculus, 72 hours, stably expressing RET kinase

SMILES	GI50 (BaF3) [nM]	GI50 (Tel-cKit-BaF3) [nM]	GI50 (Tel-cKit/T670I-BaF3) [nM]	GI50 (Tel-FLT3-BaF3) [nM]	GI50 (FLT3-ITD-BaF3) [nM]	GI50 (TEL-PDGFRα-BaF3) [nM]	GI50 (TEL-PDGFRβ-BaF3) [nM]	GI50 (TEL-VEGFR2-BaF3) [nM]	inhibition of MOLM13 (in words) [1]	inhibition of MV4-11 (in words) [2]	inhibition of MOLM14 (in words) [3]	GI50 (P210-BaF3) [nM]	GI50 (P210/T315I-BaF3) [nM]	GI50 (Tel-RET-BaF3) [nM]
CC(=O)Nc1cc(Oc2ccc(NC(=O)Cc3ccc(C(F)(F)F)cc3C(F)(F)F)cc2)ncn1 [Example 3, N-[4-(6-acetylamino-pyrimidin-4-yloxy)-phenyl]-2-(2,4-bis-trifluoromethyl-phenyl)-acetamide]	> 10000	1420	8900	325	109	7	22	1090	selectively and strongly inhibited	selectively and strongly inhibited	selectively and strongly inhibited			
COCCNc1cc(O[C@H]2CC[C@H](NC(=O)Nc3ccc(C)c(C(F)(F)F)c3)CC2)ncn1 [Example 43, 1-((1R,4R)-4-((6-((2-methoxyethyl)amino)pyrimidin-4-yl)oxy)cyclohexyl)-3-(4-methyl-3-(trifluoromethyl)phenyl)urea]	> 10000	5300	1120	305	199	23	252	2600				6960	5210	3400
Cc1ccc(NC(=O)N[C@H]2CC[C@H](Oc3cc(NCCN)ncn3)CC2)cc1C(F)(F)F [Example 46, 1-((1R,4R)-4-((6-((2-aminoethyl)amino)pyrimidin-4-yl)oxy)cyclohexyl)-3-(4-methyl-3-(trifluoromethyl)phenyl)urea]	7880	5100	765	228	87	24	248	3030				> 10000	9170	4030
CCC(=O)Nc1cc(Oc2ccc(NC(=O)Cc3ccccc3C(F)(F)F)cc2)ncn1 [Example 47, N-(6-{4-[2-(2-trifluoromethyl-phenyl)-acetylamino]-phenoxy}-pyrimidin-4-yl)-propanamide]	> 10000	8350	> 10000	546	142	28	89	3170				> 10000	> 10000	> 10000
CC(C)C(=O)Nc1cc(Oc2ccc(NC(=O)Cc3ccccc3C(F)(F)F)cc2)ncn1 [Example 49, N-(6-{4-[2-(2-trifluoromethyl-phenyl)-acetylamino]-phenoxy}-pyrimidin-4-yl)-isobutyramide]	> 10000	> 10000	> 10000	2580	1970	59	145	6110				> 10000	> 10000	> 10000
CC(C)C(=O)Nc1cc(Oc2ccc(NC(=O)Cc3cccc(C(F)(F)F)c3)cc2)ncn1 [Example 50, N-(6-{4-[2-(3-trifluoromethyl-phenyl)-acetylamino]-phenoxy}-pyrimidin-4-yl)-isobutyramide]	> 10000	855	9220	814	206	5	7	2580				> 10000	> 10000	> 10000
CCCCC(=O)Nc1cc(Oc2ccc(NC(=O)Cc3ccccc3C(F)(F)F)cc2)ncn1 [Example 55, N-(6-{4-[2-(2-trifluoromethyl-phenyl)-acetylamino]-phenoxy}-pyrimidin-4-yl)-valeramide]	> 10000	4600	6300	650	140	38	61	3900				> 10000	> 10000	7900
Cc1ccc(NC(=O)Nc2ccc(Oc3cc(NCCN4CCCC4)ncn3)cc2)cc1C(F)(F)F [Example 122, 1-(4-methyl-3-trifluoromethyl-phenyl)-3-{4-[6-(2-pyrrolidin-1-yl-ethylamino)-pyrimidin-4-yloxy]-phenyl}-urea]	3370	391	394	206	36	8	17	170				3920	3920	4300
Cc1ccc(NC(=O)NC2CCC(Oc3cc(NCCNC(=O)OC(C)(C)C)ncn3)CC2)cc1C(F)(F)F (centres unmarked) [Example 124, [2-(6-{4-[3-(4-methyl-3-trifluoromethyl-phenyl)-ureido]-cyclohexyloxy}-pyrimidin-4-ylamino)-ethyl]-aminotert-butyl Formate]	1170	2560	2270	694	149	150	180	890				2800	1540	1920
Cc1ccc(NC(=O)Nc2ccc(Oc3cc(N[C@@H](C)C(=O)O)ncn3)cc2)cc1C(F)(F)F [Example 126, (6-(4-(3-(4-methyl-3-(trifluoromethyl)phenyl)ureido)phenoxy)pyrimidin-4-yl)-L-aminopropionic Acid]	> 10000	1660	4680	797	153	140	490	410				> 10000	> 10000	6380
Cc1ccc(NC(=O)NC2CCC(Oc3cc(NCCN)ncn3)CC2)cc1C(F)(F)F (centres unmarked) [Example 128, 1-{4-[6-(2-amino-ethylamino)-pyrimidin-4-yloxy]-cyclohexyl}-3-(4-methyl-3-trifluoromethyl-phenyl)-urea]	> 10000	8470	641	150	87	110	150	1190				> 10000	8730	3870
COCCNc1cc(Oc2ccc(NC(=O)Nc3ccc(CN4CCN(C)CC4)cc3)cc2)ncn1 [Example 172, 1-{4-[6-(2-methoxy-ethylamino)-pyrimidin-4-yloxy]-phenyl}-3-[4-(4-methyl-piperazin-1-ylmethyl)-phenyl]-urea]	> 10000	> 10000	> 10000	1100	340	110	750	8300				> 10000	> 10000	> 10000
CC(=O)Nc1cc(Oc2ccc(NC(=O)Cc3cc(F)cc(F)c3)cc2)ncn1 [Example 173, N-[4-(6-acetylamino-pyrimidin-4-yloxy)-phenyl]-2-(3,5-difluoro-phenyl)-acetamide]	> 10000	3600	> 10000	510	92	14	39	1400				> 10000	> 10000	> 10000

From patent US11602534B2, “Pyrimidine derivative kinase inhibitors” (HEFEI INSTITUTES OF PHYSICAL SCIENCE, CHINESE ACADEMY OF …, priority 2017, dated 2023)
